# Experiments:
# [1] = Qualitative analysis of AAI and metabolites in bile of bile duct-cannulated rats; type: in vivo, F344 rats; details: 30 mg/kg AAI oral, bile collected 0–3 h, 3–6 h, 6–9 h, 9–12 h, qualitative UHPLC-Q-Exactive
# Procedure: Ten 6-week-old F344 rats were divided into a control group (n = 2) and a treatment group (n = 8), with equal numbers of males and females in each group. During the experiment, rats were fasted and had access to water ad libitum. Rats in the control group were administered with 0.5% CMC-Na suspension via gastric gavage. For the treatment group, rats were administered with 30 mg/kg of AAI by the same route. Rats underwent bile duct cannulation for bile sample collection. Bile samples were collected at consecutive intervals of 0–3 h, 3–6 h, 6–9 h and 9–12 h after administration.
# For each bile sample, a 200 μL aliquot of bile was mixed with an equal volume of a methanol/acetonitrile (1:1, v/v) solution. After vortexing for 2 min, the mixture was centrifuged at 13,200 rpm for 10 min. The precipitate was discarded, and the supernatant was dried under nitrogen gas. The dried residue was reconstituted in 80 μL of methanol, vortexed for 2 min, and centrifuged at 13,200 rpm for 15 min. The resulting supernatant was used for further analysis.
# Ultra-high-performance liquid chromatography (UHPLC) coupled with a Q-Exactive orbitrap mass spectrometer (Thermo Fisher Scientific, San Jose, CA, USA) was used to analyzed the metabolites of AAI in rat bile. An ACQUITY UPLC BEH C18 column (2.1 mm × 50 mm, 1.7 μm, Waters, Milford, MA, USA) was employed for chromatographic separation. The mobile phase consisted of water containing 5 mmol/L ammonium formate/0.1% formic acid (A) and acetonitrile (B).
# Metabolites in bile samples were analyzed using electrospray ionization (ESI) in both positive and negative ion modes. The spray voltage was set at 3500 V for positive mode and 3000 V for negative mode. The ion transfer tube temperature was maintained at 350 °C with a vaporizer temperature of 300 °C. The sheath gas and auxiliary gas flow rates were 35 Arb and 10 Arb. Full-scan MS data were acquired at a resolution of 35,000 within the mass range of m/z 100–1200. For MS/MS analysis, data-dependent acquisition (DDA) was performed at a resolution of 17,500 using high-energy collision dissociation (HCD). Post-acquisition data was imported into Compound Discoverer 2.1 software to identify AAI metabolites. Blank matrices were processed alongside samples to exclude the background interferences.
# [2] = Stability of AAI in rat plasma samples (QC samples); type: in vitro ADME; details: n = 3
# Procedure: A full validation of the bioanalytical method for the quantitative analysis of AAI in rat plasma was performed in inherence to the ICH M10 guideline. Selectivity, accuracy and precision, matrix effects, calibration curve and range, dilution integrity and stability were fully validated. The analyzed QCs included a lower limit of quantitation (LLOQ) sample, low QC (LQC), medium QC (MQC) and high QC (HQC). QCs of four concentration levels (LLOQ: 1 ng/mL; LQC: 3 ng/mL; MQC: 400 ng/mL; HQC: 800 ng/mL) were prepared by spiking AAI with blank plasma collected from 6 rats.
# Stability evaluation was carried out by analyzing LQCs and HQCs after storage under different conditions. Freeze–thaw stability was assessed after 3 cycles of freezing and thawing. Short-term stability was tested by keeping the LQCs and HQCs on the bench top at room temperature for the same duration as the study samples. Stability of the analyte in processed samples was tested by placing the processed samples in an autosampler for 16 h. Long-term stability was assessed by storing LQCs and HQCs at −20 °C for 15 days. The mean concentration at each QC level should be within ±15% of the nominal concentration.
# [3] = Freeze–thaw stability (3 cycles), rat plasma, nominal conc. 3 ng/mL
# [4] = Freeze–thaw stability (3 cycles), rat plasma, nominal conc. 800 ng/mL
# [5] = Long-term stability (−20 °C, 15 days), rat plasma, nominal conc. 3 ng/mL
# [6] = Long-term stability (−20 °C, 15 days), rat plasma, nominal conc. 800 ng/mL
# [7] = Post-processing stability (processed samples in autosampler 16 h), nominal conc. 3 ng/mL
# [8] = Post-processing stability (processed samples in autosampler 16 h), nominal conc. 800 ng/mL
# [9] = Short-term stability (bench top, room temperature), rat plasma, nominal conc. 3 ng/mL
# [10] = Short-term stability (bench top, room temperature), rat plasma, nominal conc. 800 ng/mL
compound,measurement,setting,value
"COc1cccc2c1cc([N+](=O)[O-])c1c(C(=O)O)cc3c(c12)OCO3 [AAI, Aristolochic acid I]",detection in bile (biliary excretion),[1],detected in bile collected during 0–3 h and 3–6 h intervals post-administration
same,Accuracy (%Dev),[2]; [3],4.10 %Dev
same,Mean Calculated Conc.,[2]; [3],3.12 ng/mL
same,Accuracy (%Dev),[2]; [4],1.30 %Dev
same,Mean Calculated Conc.,[2]; [4],810.42 ng/mL
same,Accuracy (%Dev),[2]; [5],6.54 %Dev
same,Mean Calculated Conc.,[2]; [5],3.20 ng/mL
same,Accuracy (%Dev),[2]; [6],4.71 %Dev
same,Mean Calculated Conc.,[2]; [6],837.66 ng/mL
same,Accuracy (%Dev),[2]; [7],−10.53 %Dev
same,Mean Calculated Conc.,[2]; [7],2.68 ng/mL
same,Accuracy (%Dev),[2]; [8],−11.83 %Dev
same,Mean Calculated Conc.,[2]; [8],705.33 ng/mL
same,Accuracy (%Dev),[2]; [9],3.46 %Dev
same,Mean Calculated Conc.,[2]; [9],3.10 ng/mL
same,Accuracy (%Dev),[2]; [10],−2.99 %Dev
same,Mean Calculated Conc.,[2]; [10],776.07 ng/mL
